A word on the IC50: it is the concentration needed to halve the response being measured. The melting point is the temperature, or range, at which the solid turns liquid.

The values below come from paper PMC8973347, “Discovery of novel sulphonamide hybrids that inhibit LSD1 against bladder cancer cells” (Journal of Enzyme Inhibition and Medicinal Chemistry, 2022).

One series addresses T1, MAO-B (Homo sapiens, UniProt P27338).
T1 construct: purchased Promega
T1 sequence (P27338 1-520): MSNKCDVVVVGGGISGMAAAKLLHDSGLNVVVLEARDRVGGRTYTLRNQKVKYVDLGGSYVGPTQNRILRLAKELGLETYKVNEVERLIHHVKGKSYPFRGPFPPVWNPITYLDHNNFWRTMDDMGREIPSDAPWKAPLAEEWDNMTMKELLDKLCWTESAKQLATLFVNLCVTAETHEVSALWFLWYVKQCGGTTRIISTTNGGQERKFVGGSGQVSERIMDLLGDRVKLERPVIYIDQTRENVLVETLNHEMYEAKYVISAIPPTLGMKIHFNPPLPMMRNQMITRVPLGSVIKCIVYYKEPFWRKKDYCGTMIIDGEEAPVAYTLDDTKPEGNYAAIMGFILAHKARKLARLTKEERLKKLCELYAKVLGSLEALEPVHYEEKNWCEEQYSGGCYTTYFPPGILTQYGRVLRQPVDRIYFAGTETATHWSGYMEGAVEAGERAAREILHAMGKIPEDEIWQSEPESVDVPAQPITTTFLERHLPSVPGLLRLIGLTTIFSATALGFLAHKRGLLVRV
In words: MAO-A/B biochemical kit, MAO-B.

Another series has as its target T2, MAO-A (Homo sapiens, UniProt P21397).
T2 construct: purchased Promega
T2 sequence (P21397 1-527): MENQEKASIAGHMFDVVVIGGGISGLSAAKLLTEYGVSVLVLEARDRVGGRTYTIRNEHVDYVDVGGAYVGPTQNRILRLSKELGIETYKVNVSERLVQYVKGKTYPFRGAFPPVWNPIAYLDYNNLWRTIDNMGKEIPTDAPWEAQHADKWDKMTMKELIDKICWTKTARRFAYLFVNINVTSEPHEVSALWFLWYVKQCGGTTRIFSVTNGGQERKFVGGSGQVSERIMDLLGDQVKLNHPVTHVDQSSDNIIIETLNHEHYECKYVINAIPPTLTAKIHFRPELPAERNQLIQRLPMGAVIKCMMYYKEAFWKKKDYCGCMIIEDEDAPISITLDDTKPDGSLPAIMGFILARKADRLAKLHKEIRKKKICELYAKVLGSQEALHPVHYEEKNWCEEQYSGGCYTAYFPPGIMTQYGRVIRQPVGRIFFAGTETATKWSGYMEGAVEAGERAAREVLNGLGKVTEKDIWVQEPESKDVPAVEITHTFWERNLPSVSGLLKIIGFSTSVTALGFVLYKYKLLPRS
Kind of series: MAO-A/B biochemical kit, MAO-A.

The next series concerns the target LSD1 (Homo sapiens, UniProt O60341). Kind of series: LSD1 inhibitor screening assay kit.
A further series concerns RKO. Set-up: method as in PMID 31181480. The settings on record: read-out: IC50 against RKO; cited from earlier work.
The test system of a further series is HCT-116. Set-up: method as in PMID 31181480. The settings on record: read-out: IC50 against HCT-116; cited from earlier work.
The subject of the next series is A2780. Also noted: method as in PMID 31181480. The settings on record: read-out: IC50 against A2780; cited from earlier work.
The subject of series [1] is Hela. Set-up: method as in PMID 31181480. The settings on record: read-out: IC50 against Hela; cited from earlier work.
A further series concerns PC-3 cells. Also noted: method as in PMID 28872607. The settings on record: read-out: IC50 against PC-3 cells; cited from earlier work.
Series [2] has as its system Hela. Set-up: method as in PMID 30992165. The settings on record: cited from earlier work.
The subject of another series is NAMPT. Also noted: method as in PMID 30992165. The settings on record: cited from earlier work.
The subject of a further series is DU145. Also noted: method as in PMID 30992165. The settings on record: cited from earlier work.
The test system of the next series is H1975. Also noted: method as in PMID 30992165. The settings on record: cited from earlier work.

SMILES strings stand for the structures. Like-named read-outs stand apart in the source and are kept apart here. Bounds are passed on as bounds.

From the text for LSD1: (§1) LSD1 inhibitor screening assay kit was purchased to evaluate for the enzyme inhibition activity of all synthetic compounds (Cayman Chemical, Fort Annapolis, MI). The MAO-A/B biochemical kit was purchased to explore the inhibitory activity against MAO-A and MAO-B (Promega, Madison, WI). […] The signal of each well was read by a GloMax Explorer (Beijing Yuanpinghao Biotechnology Co., Ltd, Beijing, China).
From the text for MAO-B: as §1

On to `CC(C)(C)c1ccc(S(=O)(=O)Nc2cccc3cccnc23)cc1` [Compound J3, 4-(Tert-butyl)-N-(quinolin-8-yl)benzenesulphonamide], for which the IC50 against MAO-B was greater than 120 µM; on MAO-A, greater than 120 µM; against LSD1, 61.9 ± 2.46 µM.

`COc1ccc(S(=O)(=O)Nc2cccc3cccnc23)cc1` [Compound J2, 4-Methoxy-N-(quinolin-8-yl)benzenesulphonamide]: the IC50 on MAO-B is greater than 120 µM; at MAO-A, greater than 120 µM; against LSD1 it was 45.6 ± 1.12 µM.

Consider `O=S(=O)(Nc1cccc2cccnc12)c1ccccc1` [Compound J4, N-(quinolin-8-yl)benzenesulphonamide], for which the IC50 was greater than 120 µM on MAO-B, greater than 120 µM against MAO-A and 82.5 ± 3.38 µM at LSD1.

As for `COc1cccc(Nc2ccnc3cc(OCCCc4ccccc4)ccc23)c1` [Compound 8], the IC50 in the series with RKO is 3.67 µM; in the series on HCT-116, 2.56 µM; with A2780 it was 3.46 µM; in the series on Hela [1], 2.71 µM.

As to `Cc1ccc(S(=O)(=O)NCc2cn(Cc3cccc(Oc4ccccc4)c3)nn2)cc1` [Compound 5], in the series with PC-3 cells, the IC50 was 4.08 µM.

For the compound `N[C@H]1CC[C@H](N[C@@H]2C[C@H]2c2ccccc2)CC1` [ORY-1001, reference compound], on MAO-A, the IC50 was greater than 120 µM.

Regarding `COc1cc(N(CCCCSC(=S)N2CCN(C)CC2)S(=O)(=O)c2cccc3cccnc23)cc(OC)c1OC` [Compound L7, 4-(N-(3,4,5-trimethoxyphenyl)quinoline-8-sulfonamido)butyl-4-methylpiperazine-1-carbodithioate], the IC50 against MAO-B was greater than 120 µM; against MAO-A, greater than 120 µM; on LSD1 (read-out: IC50 (μM) LSD1) it was 0.73 ± 0.08 µM.

`COc1cc(N(CCCSC(=S)N2CCN(C(=O)OC(C)(C)C)CC2)S(=O)(=O)c2cccc3cccnc23)cc(OC)c1OC` [Compound L2, Tert-butyl-4-(((3-(N-(3,4,5-trimethoxyphenyl)quinoline-8-sulfonamido)propyl)thio)carbonothioyl)piperazine-1-carboxylate]: the melting point fell in the range of 130 to 132 °C. This compound yielded an IC50 against MAO-B greater than 120 µM. This compound also registered an IC50 against MAO-A greater than 120 µM. On LSD1, this compound displayed an IC50 of 1.39 ± 0.14 µM.

Turning to `COc1cc(N(CCCBr)S(=O)(=O)c2cccc3cccnc23)cc(OC)c1OC` [Compound K2, N-(3-bromopropyl)-N-(3,4,5-trimethoxyphenyl)quinoline-8-sulphonamide], the IC50 on MAO-B is greater than 120 µM; on MAO-A, greater than 120 µM; on LSD1, 9.63 ± 1.26 µM.

The compound `COc1cc(N(CCBr)S(=O)(=O)c2cccc3cccnc23)cc(OC)c1OC` [Compound K1, N-(2-bromoethyl)-N-(3,4,5-trimethoxyphenyl)quinoline-8-sulphonamide] yielded a melting point of 158 to 160 °C. The compound further returned an IC50 against MAO-B greater than 120 µM. For the same compound, the IC50 against MAO-A is greater than 120 µM. For the same compound, at LSD1, inhibition was half-maximal at 14.8 ± 2.04 µM (IC50).

On to `COc1cc(N(CCSC(=S)N2CCN(C(=O)OC(C)(C)C)CC2)S(=O)(=O)c2cccc3cccnc23)cc(OC)c1OC` [Compound L1, Tert-butyl-4-(((2-(N-(3,4,5-trimethoxyphenyl)quinoline-8-sulfonamido)ethyl)thio)carbonothioyl)piperazine-1-carboxylate], for which the melting point fell in the range of 121 to 123 °C. Further, the IC50 at MAO-B is greater than 120 µM. Also, the IC50 at MAO-A was greater than 120 µM. Besides, the IC50 against LSD1 amounted to 2.73 ± 0.29 µM.

With `COc1ccc(S(=O)(=O)Nc2cccc3cccnc23)cc1OC` [Compound J1, 3,4-Dimethoxy-N-(quinolin-8-yl)benzenesulphonamide], the IC50 is greater than 120 µM at MAO-B, greater than 120 µM at MAO-A and 33.8 ± 2.04 µM at LSD1.

As to `COc1cc(NS(=O)(=O)c2cccc3cccnc23)cc(OC)c1OC` [Compound J7, N-(3,4,5-trimethoxyphenyl)quinoline-8-sulphonamide], the IC50 on MAO-B was greater than 120 µM; at MAO-A it was greater than 120 µM; on LSD1, 11.6 ± 1.92 µM.

As for `CCN1CCN(C(=S)SCCCCN(c2cc(OC)c(OC)c(OC)c2)S(=O)(=O)c2cccc3cccnc23)CC1` [Compound L5, 4-(N-(3,4,5-trimethoxyphenyl)quinoline-8-sulfonamido)butyl-4-ethylpiperazine-1-carbodithioate], the IC50 was greater than 120 µM on MAO-B, greater than 120 µM on MAO-A and 4.92 ± 0.13 µM at LSD1 (read-out: IC50 (μM) LSD1). The “LSD1 activity loss, hydroxyethyl group replaced with ethyl group” value at LSD1 (compound L8 versus L5) is listed as “over 80 fold”.

The compound `COc1cc(N(CCCCSC(=S)N2CCN(C(=O)OC(C)(C)C)CC2)S(=O)(=O)c2cccc3cccnc23)cc(OC)c1OC` [Compound L6, Tert-butyl-4-(((4-(N-(3,4,5-trimethoxyphenyl)quinoline-8-sulfonamido)butyl)thio)carbonothioyl)piperazine-1-carboxylate] showed a melting point of 98 to 100 °C. The IC50 against MAO-B was greater than 120 µM. Also, the IC50 on MAO-A is greater than 120 µM. The compound further had an IC50 against LSD1 of 0.23 ± 0.05 µM.

Turning to `Cc1ccc(S(=O)(=O)Nc2cccc3cccnc23)cc1` [Compound J5, 4-Methyl-N-(quinolin-8-yl)benzenesulphonamide], the values for the IC50 at MAO-B, on MAO-A and against LSD1 were greater than 120 µM, greater than 120 µM and 74.5 ± 2.67 µM, respectively.

As to `Cc1ccccc1NS(=O)(=O)c1cccc(CCCCCCNC(=O)/C=C/c2cccnc2)c1` [Compound 4], the “antiproliferative activity against Hela cells” value in the series with Hela [2] is reported as “single-digit nanomolar”. Also, the IC50 in the series on NAMPT is 0.00508 µM. The “antiproliferative activity against DU145 cells” value in the series with DU145 is listed as “single-digit nanomolar”. Also, the “antiproliferative activity against H1975 cells” value in the series with H1975 is “single-digit nanomolar”.

Take `O=S(=O)(Nc1cccc2cccnc12)c1ccc(Br)cc1` [Compound J6, 4-Bromo-N-(quinolin-8-yl)benzenesulphonamide]: the melting point was in the range of 192 to 194 °C. The compound also showed an IC50 at MAO-B greater than 120 µM. The IC50 against MAO-A was greater than 120 µM. The compound also came in with an IC50 on LSD1 of 61.8 ± 5.64 µM.

In turn, `COc1cc(N(CCCCBr)S(=O)(=O)c2cccc3cccnc23)cc(OC)c1OC` [Compound K3, N-(4-bromobutyl)-N-(3,4,5-trimethoxyphenyl)quinoline-8-sulphonamide] returned a melting point of 103 to 104 °C. The same compound came in with an IC50 against MAO-B greater than 120 µM. Besides, on MAO-A, the IC50 is greater than 120 µM. In addition, the IC50 against LSD1 came out at 6.32 ± 0.77 µM.

As to `COc1cc(N(CCSC(=S)N2CCN(CCO)CC2)S(=O)(=O)c2cccc3cccnc23)cc(OC)c1OC` [Compound L3, 2-(N-(3,4,5-trimethoxyphenyl)quinoline-8-sulfonamido)ethyl-4–(2-hydroxyethyl)piperazine-1-carbodithioate], the IC50 against MAO-B was greater than 120 µM; on MAO-A it was greater than 120 µM; on LSD1 (read-out: IC50 (μM) LSD1), 1.85 ± 0.07 µM.

`COc1cc(N(CCCSC(=S)N2CCN(CCO)CC2)S(=O)(=O)c2cccc3cccnc23)cc(OC)c1OC` [Compound L4, 3-(N-(3,4,5-trimethoxyphenyl)quinoline-8-sulfonamido)propyl-4–(2-hydroxyethyl)piperazine-1-carbodithioate]: the IC50 at MAO-B is greater than 120 µM; on MAO-A, greater than 120 µM; on LSD1 (read-out: IC50 (μM) LSD1), 0.67 ± 0.1 µM.
